# Assay results from patent US6855730B2, “3-methylidenyl-2-indolinone modulators of protein kinase” (Sugen, Inc., priority 1998, dated 2005).
# Biological target: EGFR (Homo sapiens, UniProt P00533)
# Test: Biochemical EGFR assay (ELISA, A431 cell lysate)
# Parameters: A431 cell lysate (Screening Lab, SUGEN, Inc.); host or cells: A431
# Details: read-out: bio EGFr IC50
# How it was run: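 EGFR captured from A431 cell lysate onto anti-EGFR-coated plates, then incubated with test compound for 30 min at room temperature. Tyrosine phosphorylation with ATP/MnCl2 was stopped with EDTA after 5 min and detected by anti-phosphotyrosine ELISA with peroxidase/ABTS read-out.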
# Sequence of EGFR (P00533 25-1210): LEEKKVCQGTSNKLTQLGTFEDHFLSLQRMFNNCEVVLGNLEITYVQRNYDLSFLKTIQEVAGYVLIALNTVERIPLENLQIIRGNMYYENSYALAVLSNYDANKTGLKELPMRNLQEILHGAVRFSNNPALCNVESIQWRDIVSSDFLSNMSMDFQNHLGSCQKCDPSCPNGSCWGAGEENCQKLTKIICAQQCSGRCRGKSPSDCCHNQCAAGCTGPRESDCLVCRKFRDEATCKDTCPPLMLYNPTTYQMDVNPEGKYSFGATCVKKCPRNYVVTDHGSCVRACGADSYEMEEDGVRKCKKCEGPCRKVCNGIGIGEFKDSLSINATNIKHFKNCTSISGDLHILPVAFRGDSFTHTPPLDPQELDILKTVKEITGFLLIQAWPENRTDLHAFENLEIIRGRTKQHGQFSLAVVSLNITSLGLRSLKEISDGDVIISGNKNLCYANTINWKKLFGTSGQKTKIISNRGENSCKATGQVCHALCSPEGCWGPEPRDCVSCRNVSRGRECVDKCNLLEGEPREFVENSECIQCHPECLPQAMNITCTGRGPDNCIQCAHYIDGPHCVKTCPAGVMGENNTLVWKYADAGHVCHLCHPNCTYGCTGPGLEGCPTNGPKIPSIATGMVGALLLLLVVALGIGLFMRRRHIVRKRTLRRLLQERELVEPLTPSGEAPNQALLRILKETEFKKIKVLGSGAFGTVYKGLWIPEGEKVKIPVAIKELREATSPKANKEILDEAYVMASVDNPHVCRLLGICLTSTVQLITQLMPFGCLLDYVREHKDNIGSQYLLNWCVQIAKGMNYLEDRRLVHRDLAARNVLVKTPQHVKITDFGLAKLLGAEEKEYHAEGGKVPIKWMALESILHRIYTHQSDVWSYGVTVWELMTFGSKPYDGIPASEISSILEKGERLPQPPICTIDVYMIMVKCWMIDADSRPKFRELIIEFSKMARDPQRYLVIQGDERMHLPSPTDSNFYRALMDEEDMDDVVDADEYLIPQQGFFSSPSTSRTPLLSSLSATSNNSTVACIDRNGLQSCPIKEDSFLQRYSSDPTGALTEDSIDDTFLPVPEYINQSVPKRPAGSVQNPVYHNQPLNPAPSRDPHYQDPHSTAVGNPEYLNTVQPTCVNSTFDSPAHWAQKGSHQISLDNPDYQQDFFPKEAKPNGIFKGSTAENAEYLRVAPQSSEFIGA
row,SMILES,IC50 [µM]
1,"COc1cc(C)c(/C=C2/C(=O)Nc3ncccc32)cc1C(C)C [Example 45, 3-(5-Isopropyl-4-methoxy-2-methylbenzylidene)-1,3-dihydro-pyrrolo[2,3-b]pyridin-2-one]",24
2,"CCOc1cccc(-c2cc(C=C3C(=O)Nc4ccccc43)ccc2OC)c1 [Example 46, 3-(3′-Ethoxy-6-methoxybiphenyl-3-ylmethylene)-1,3-dihydroindol-2-one]",> 100
3,"COc1ccc(/C=C2/C(=O)Nc3ncccc32)cc1C1CCCC1 [Example 47, 3-(3-Cyclopentyl-4-methoxybenzylidene)-1,3-dihydropyrrolo[2,3-b]pyridin-2-one]",36.8
4,"COc1ccc(/C=C2\C(=O)Nc3cccc(C)c32)cc1C1CCCC1 [Example 48, 3-(3-Cyclopentyl-4-methoxybenzylidene)-4-methyl-1,3-dihydroindol-2-one]",> 100
5,"COc1cc(C=C2C(=O)Nc3ccccc32)c(-c2ccccc2OC)cc1OC [Example 49, 3-(4,5,2′-Trimethoxybiphenyl-2-ylmethylene)-1,3-dihydroindol-2-one]",> 100
6,"CC(=O)Nc1ccc2c(c1)NC(=O)/C2=C/c1ccc(OCCN2CCOCC2)c(-c2ccsc2)c1 [Example 50, N-{3-[4-(2-Morpholin-4-ylethoxy)-3-thiophen-3-ylbenzylidene]-2-oxo-2,3-dihydro-1H-indol-6-yl}-acetamide]",> 100
7,"COc1ccc(/C=C2/C(=O)Nc3ccc(Cl)cc32)cc1C1CCCCC1 [Example 51, 5-Chloro-3-(3-cyclohexyl-4-methoxybenzylidene)-1,3-dihydroindol-2-one]",> 100
8,"COc1c(C(C)C)cc(/C=C2/C(=O)Nc3cc(NC(=O)OC(C)(C)C)ccc32)cc1C(C)C [Example 52, [3-(3,5-Diisopropyl-4-methoxybenzylidene)-2-oxo-2,3-dihydro-1H-indol-6-yl]-carbamic acid tert-butyl ester]",> 100
9,"COc1c(C(C)C)cc(/C=C2\C(=O)Nc3cccc(C)c32)cc1C(C)C [Example 53, 3-(3,5-Diisopropyl-4-methoxybenzylidene)-4-methyl-1,3-dihydroindol-2-one]",> 100
10,"COc1c(C(C)C)cc(/C=C2/C(=O)Nc3ccc(Br)cc32)cc1C(C)C [Example 54, 5-Bromo-3-(3,5-diisopropyl-4-methoxybenzylidene)-1,3-dihydroindol-2-one]",> 100
11,"CC(=O)Nc1ccc2c(c1)NC(=O)/C2=C/c1ccc(OCCN2CCOCC2)c(C(C)(C)C)c1 [Example 55, N-{3-[3-tert-Butyl-4-(2-morpholin-4-ylethoxy)-benzylidene]-2-oxo-2,3-dihydro-1H-indol-6-yl}-acetamide]",> 100
12,"COc1c(C)cc(/C=C2/C(=O)Nc3ncccc32)cc1C [Example 56, 3-(4-Methoxy-3,5-dimethylbenzylidene)-1,3-dihydropyrrolo[2,3-b]pyridin-2-one]",10.1
13,"CC(C)c1cc(/C=C2/C(=O)Nc3ccc(Br)cc32)cc(C(C)C)c1OCCN1CCOCC1 [Example 57, 5-Bromo-3-[3,5-diisopropyl-4-(2-morpholin-4-ylethoxy)benzylidene]-1,3-dihydroindol-2-one]",> 100
14,"CCOc1cccc(-c2cc(OC)c(OC)cc2/C=C2/C(=O)Nc3ccccc32)c1 [Example 58, 3-(3′-Ethoxy-4,5-dimethoxybiphenyl-2-ylmethylene)-1,3-dihydroindol-2-one]",> 100
15,"COc1ccc(/C=C2/C(=O)Nc3ccc(Cl)cc32)cc1-c1cccs1 [Example 59, 5-chloro-3-(4-Methoxy-3-thiophen-2-ylbenzylidene)-1,3-dihydroindol-2-one]",> 100
16,COc1ccc(/C=C2/C(=O)Nc3ccc(Cl)cc32)cc1-c1cccnc1 [Example 60],> 100
17,"COc1cccc(-c2cc(OC)c(OC)cc2/C=C2/C(=O)Nc3ccc(Cl)cc32)c1 [Example 61, 5-Chloro-3-(4,5-3′-Trimethoxybiphenyl-2-ylmethylene)-1,3-dihydroindol-2-one]",> 100
18,"COc1cc(/C=C2/C(=O)Nc3ccccc32)c(-c2ccc3ccccc3c2)cc1OC [Example 62, 3-(4,5-Dimethoxy-2-naphthalen-2-ylbenzylidene)-1,3-dihydroindol-2-one]",> 100

row,SMILES,IC50 [µM]
1,"COc1ccc2c(c1)NC(=O)/C2=C/c1ccc(OC)c(-c2ccsc2)c1 [Example 64, 6-Methoxy-3-(4-methoxy-3-thiophen-3-ylbenzylidene)-1,3-dihydroindol-2-one]",> 100
2,"COc1ccc(/C=C2/C(=O)Nc3ccccc32)cc1-c1ccccc1 [Example 65, 3-(6-Methoxybiphenyl-3-ylmethylene)-1,3-dihydroindol-2-one]",> 100
3,"O=C1Nc2ccccc2/C1=C\c1ccc2c(c1)CCO2 [Example 66, 3-(2,3-Dihydrobenzofuran-5-ylmethylene)-1,3-dihydroindol-2-one]",> 100
4,"COc1ccc(/C=C2/C(=O)Nc3ccc(Cl)cc32)cc1-c1ccccc1 [Example 67, 5-Chloro-3-(6-methoxybiphenyl-3-ylmethylene)-1,3-dihydroindol-2-one]",> 100
5,"COc1ccc(/C=C2\C(=O)Nc3cccc(C)c32)cc1C1CCCCC1 [Example 68, 3-(3-Cyclohexyl-4-methoxybenzylidene)-4-methyl-1,3-dihydroindol-2-one]",> 100
6,"Cc1cccc2c1/C(=C/c1ccc3c(c1)CCO3)C(=O)N2 [Example 69, 3-(2,3-Dihydrobenzofuran-5-ylmethylene)-4-methyl-1,3-dihydroindol-2-one]",> 100
7,"COc1ccc(/C=C2/C(=O)Nc3ncccc32)cc1C(C)C [Example 70, 3-(3-Isopropyl-4-methoxybenzylidene)-1,3-dihydropyrrolo[2,3-b]pyridine-2-one]",22.6
8,"COc1ccc(/C=C2/C(=O)Nc3ncccc32)cc1-c1ccccc1 [Example 71, 3-(6-Methoxybiphenyl-3-ylmethylene)-1,3-dihydropyrrolo[2,3-b]pyridin-2-one]",29.6
9,"COc1ccc(/C=C2/C(=O)Nc3ncccc32)cc1C1CCCCC1 [Example 72, 3-(3-Cyclohexyl-4-methoxybenzylidene)-1,3-dihydropyrrolo[2,3-b]pyridin-2-one]",11.8
10,"O=C1Nc2ncccc2/C1=C\c1ccc2c(c1)CCO2 [Example 73, 3-(2,3-Dihydrobenzofuran-5-ylmethylene)-1,3-dihydropyrrolo[2,3-b]pyridin-2-one]",7.9
11,"COc1c(C(C)C)cc(/C=C2/C(=O)Nc3ncccc32)cc1C(C)C [Example 74, 3-(3,5-Diisopropyl-4-methoxybenzylidene)-1,3-dihydropyrrolo[2,3-b]pyridin-2-one]",13.2
12,"Cc1cc(CCC(=O)O)c(/C=C2\C(=O)Nc3cc(-c4ccc(F)cc4)ccc32)[nH]1 [Example 107, 3-{2-[6-(4-Fluorophenyl)-2-oxo-1,2-dihydroindol-3-ylidenemethyl]-5-methyl-1H-pyrrol-3-yl}propionic acid]",> 100
13,"CCOC(=O)c1c(C)[nH]c(/C=C2\C(=O)Nc3cc(-c4ccc(F)cc4)ccc32)c1CCC(=O)O [Example 108, 4-(2-Carboxyethyl)-5-[6-(4-fluorophenyl)-2-oxo-1,2-dihydro-indol-3-ylidenemethyl]-2-methyl-1H-pyrrole-3-carboxylic acid ethyl ester]",> 100
14,"COc1ccccc1-c1ccc2c(c1)NC(=O)/C2=C\c1[nH]c(C)cc1CCC(=O)O [Example 109, 3-{2-[6-(2-Methoxyphenyl)-2-oxo-1,2-dihydroindol-3-ylidenemethyl]-5-methyl-1H-pyrrol-3-yl}-propionic acid]",> 100
15,"CCOC(=O)c1c(C)[nH]c(/C=C2\C(=O)Nc3cc(-c4ccccc4OC)ccc32)c1CCC(=O)O [Example 110, 4-(2-Carboxyethyl)-5-[6-(2-methoxyphenyl)-2-oxo-1,2-dihydro-indol-3-ylidenemethyl]-2-methyl-1H-pyrrol-3-yl-carboxylic acid ethyl ester]",> 100
16,"Cc1cc(CCC(=O)O)c(/C=C2\C(=O)Nc3ccc(Cl)cc32)[nH]1 [Example 111, 3-[2-(5-Chloro-2-oxo-1,2-dihydroindol-3-ylidenemethyl)-5-methyl-1H-pyrrol-3-yl]propionic acid]",> 100
17,"O=C1Nc2ccc(Br)cc2/C1=C/c1cc2ccccc2[nH]1 [Example 165, 5-Bromo-3-(1H-indol-2-ylmethylene)-1,3-dihydro-indol-2-one]",> 100
18,"Cc1cccc2c1/C(=C/c1cc3ccccc3[nH]1)C(=O)N2 [Example 166, 3-(1H-indol-2-ylmethylene)-4-methyl-1,3-dihydro-indol-2-one]",> 100
